Reference: patent US20010038832A1, “Nitric oxide and analogues thereof effectuate sensitization of neoplasm and immunologically undesired tissues to cytotoxicity” (priority 2000, published 2001)

Assays:
Assay type in all cases: cell-based
AD10 cells [1] = experiment: Fas-mediated cytotoxicity (CH11, LDH release), AD10 cells
Protocol: (§1) In a preferred embodiment, A2780 and AD10 cells (1×10^4 cells/well) were cultured in 96-well plates supplemented with 10%FCS and pretreated with increasing concentrations of IFN-γ (0, 10, 100 and 1000 U/mL) 18 h prior to performing the cytotoxicity assay with increasing concentrations of the anti-Fas agonist antibody CH11 (0, 0.01, and 0.1 μg/mL).
(§2) Now also referring to FIGS. 3A and B, therein the role of iNOS in the mechanism of sensitization to Fas-mediated cytotoxicity of ovarian carcinoma cells is illustrated. Ovarian carcinoma cells, A2780 and AD10, were respectively incubated in the presence or in the absence of the competitive NOS inhibitor L-NMA (1 mM) 6 h prior to IFN-γ treatment. […] Furthermore, it is herein illustrated that the parental cell line A2780, which is not able to express iNOS upon IFN-γ stimulation, was not sensitized at the same level when compared with the adriamycin resistant cell line AD10, which is induced by IFN-γ alone to express iNOS.
(§3) The role of the endogenously generated NO in the IFN-γ-mediated sensitization to Fas-induced apoptosis was corroborated by the use of an exogenous source of NO, which mimics the production of NO by iNOS. […]
(§4) This example describes a preferred method of determining cytotoxicity. Sensitization to Fas-mediated apoptosis was assessed using the agonist anti-Fas monoclonal antibody CH11(IgM) [0.01, 0.1 and 1 μg/mL] […] After the initial incubation for each different experimental condition, released LDH into the culture supernatants was measured with a 30-minute coupled enzymatic assay which results in the conversion of a tetrazolium salt (INT) into a red formazan product that is read at 490 nm in an automated plate reader (Emax, Molecular Devices, Sunnyvale, Calif.). Percentage cytotoxicity was calculated using the spontaneous release-corrected OD as follows: % cytotoxicity=(OD of experimental well/OD of maximum release control well)×100.

A2780 cells = experiment: Fas-mediated cytotoxicity (CH11, LDH release), A2780 cells
Protocol: as §1, §2, §3, §4

AD10 cells [2] = experiment: Apoptosis by acridine orange/ethidium bromide staining, AD10 cells
Protocol: Now referring to FIGS. 5a through f, sensitization of AD10 to CH11 (Fas-ligand agonist)-mediated cytotoxicity was due to apoptosis. The morphological pattern was examined by staining the ovarian carcinoma cells with acridine orange/ethidium bromide (AO/EB).
This example describes one preferred embodiment for determining apoptosis through acridine orange/ethidium bromide staining. Characteristic apoptotic morphological changes were assessed by fluorescent microscopy using the acridine-orange and ethidium bromide staining (AO/EB) method. Briefly, adherent cells, under different experimental conditions, were cultured in 24 wells plates, and washed with PBS once prior to staining. Monolayers of adherent cells were covered with 100 μl of AO/EB solution (4 μg/mL of each). Immediately after adding the AO/EB solution, each sample was examined under an inverted/fluorescent microscope.

[3] = tested on: Fas receptor mRNA in AD10 cells; experiment: Fas receptor mRNA expression by RT-PCR, AD10 cells
[4] = tested on: Fas receptor protein in AD10 cells; experiment: Fas receptor protein level by Western blot, AD10 cells; conditions: FIG. 6C
Protocol: Now referring to FIG. 6C, the upregulation of Fas receptor was corroborated by Western blot. IFN-γ induced AD10 cells (1×10^7/plate) were cultured in a 100-mm plate supplemented with 10% FCS.
This example describes one preferred method of determining protein expression. Cell extracts for iNOS and Fas receptor analysis were prepared by lysing 5×10^6 cells in 1 mL phosphate buffer solution [10 mM EDTA, 1% triton X-100, 1 mM Phenylmethylsulfonyl fluoride (PMSF) and 0.01% leupeptin]. Cell lysates were boiled (3 min) with 1 volume gel loading buffer [50 mM Tris/10% sodium dodecyl sulfate (SDS)/10% glycerol/10% 2-mecaptoethanol/2 mg/mL bromophenol blue] and centrifuged at 1×10^4 g for 10 min. Protein concentrations of the supernatants were determined according to Bradford, and total protein equivalents for each sample were separated on 12% SDS-polyacrylamide minigels (Bio-Rad, Richmond, Calif.) and transferred to nitrocellulose membranes (Amersham Corp., Arlington Heights, Ill.). Nonspecific immunoglobulin G (IgG) binding sites were blocked with 5% dried milk protein, and samples were then incubated with the antibody to iNOS [1:1000] (Transduction Laboratories, Lexington, Ky.) or CD95 [1:500] (PharMingen, San Diego, Calif.).

[5] = tested on: Fas surface molecule on AD10 cells; experiment: Fas surface molecule expression by flow cytometry, AD10 cells
Protocol: (§5) This example describes one preferred method of separating and sorting cells through fluorescence-activated cell sorting (FACS). Surface Fas antigen expression on tumor cells was determined by flow cytometry. Briefly, harvested cells were washed with cold buffer consisting of PBS without Ca^++ or Mg^++ with 2% heat-inactivated FCS and 0.1% sodium azide. 2×10^5 cells per sample were pretreated with human AB serum (Gemini Bioproducts, Calabasas, Calif.) for 1 h, washed twice and resuspended in 50 μl of PBS. The cells were incubated with 10 μg/mL of anti-Fas monoclonal antibody FITC-conjugated (PharMingen, San Diego, Calif.) or isotype control antibody for 1 h. The cells were then washed twice and fixed in 2% paraformaldehyde solution (Sigma Chemical Co., St. Louis, Mo.) and flow cytometry was conducted all the FACScan facility of the UCLA Department of Microbiology and Immunology.

[6] = tested on: NO production by iNOS in AD10 cells; experiment: NO2-/NO3- release into culture medium (Griess reaction), AD10 cells; conditions: FIG. 1B
Protocol: (§6) The activity of iNOS and generated NO were monitored by the release of NO2^−/NO3^− into the cell culture medium as determined by the Griess reaction.
(§7) This example describes one preferred method of determining nitrate and nitrite concentrations. Nitric oxide generation was monitored indirectly by levels of nitrite/nitrate (NO2^−/NO3^−) released into the culture medium as determined by the diazotization reaction of Griess with NaNO2 as standard Briefly, 50 μl aliquots of cell culture supernatants from each sample were mixed with one volume of Griess reagent [1% sulfanilamide; 0.1% naphthylethylene diamine dihydrochloride; 2.5% H3PO4] and incubated at room temperature for 10 min. The absorbance at 550 nm was measured in an automated plate reader (Emax, Molecular Devices, Sunnyvale, Calif.). Nitrite concentrations were calculated by comparison with OD550 values of standard solutions of sodium nitrite prepared in culture medium.

[7] = tested on: iNOS mRNA in AD10 ovarian carcinoma cells; experiment: iNOS mRNA expression by semiquantitative RT-PCR in AD10 cells; conditions: 18 hours, FIG. 1A
[8] = tested on: iNOS expression in A2780 ovarian carcinoma cell line; experiment: iNOS expression in A2780 cells; conditions: parental A2780 cell line, data not shown
[9] = tested on: NO generation in A2780 cells; experiment: NO generation upon IFN-γ stimulation, A2780 cells
Protocol: as §6, §7

[10] = tested on: Fas surface molecule on A2780 cells; experiment: Fas surface molecule expression by flow cytometry, A2780 cells; conditions: A2780, FIG. 6D legend
Protocol: as §5

Molecule: CC(=O)N[C@H](C(=O)O)C(C)(C)SN=O (racemic) [SNAP, S-Nitroso-N-acetylpenicillamine]
- sensitization to Fas-mediated cytotoxicity by NO donor (AD10 cells [1]; AD10, NO donor 10 and 100 μM for 24 h before CH11, LDH release, FIG. 4B): sensitized
- sensitization to Fas-mediated cytotoxicity by NO donor (A2780 cells; A2780, NO donor 10 and 100 μM for 24 h before CH11, LDH release, FIG. 4A): sensitized
- number of apoptotic cells, NO donor alone (AD10 cells [2]; AD10, NO donor alone, no CH11): did not increase the number of apoptotic cells
- frequency of cells undergoing apoptosis, NO donor prior to CH11 (AD10 cells [2]; AD10, SNAP prior to exposure to CH11): increased the frequency of cells undergoing characteristic apoptosis
- Fas receptor mRNA expression with NO donor ([3]; AD10, SNAP 0, 1, 10 and 100 μM, 18 h, FIG. 6A): upregulated Fas receptor mRNA expression
- Fas protein level after addition of SNAP to IFN-γ plus NOS inhibitor [4]: restored
- Fas surface expression after NO donor added to IFN-γ plus NOS inhibitor ([5]; AD10, FIG. 6D): restored

Molecule: CNC(=N)NCCC[C@H](N)C(=O)O [L-NMA, N^G-Monomethyl-L-arginine]
- effect of NOS inhibitor on IFN-γ-induced NO2-/NO3- generation ([6]; L-NMA 1.0 mM prior to IFN-γ induction): blocking the generation of NO2^−/NO3^−
- effect of NOS inhibition on IFN-γ-mediated sensitization to Fas-mediated apoptosis (AD10 cells [1]; AD10, L-NMA 1 mM 6 h prior to IFN-γ, FIG. 3B): significantly decreased
- effect of NOS inhibition on IFN-γ-mediated sensitization to Fas-mediated apoptosis (A2780 cells; A2780, L-NMA 1 mM 6 h prior to IFN-γ, FIG. 3A): did not respond to NOS blocking
- frequency of cells undergoing apoptosis with NOS inhibitor (AD10 cells [2]; AD10, L-NMA 1 mM 6 h prior to IFN-γ pretreatment, then CH11): significantly reduced
- Fas mRNA expression with NOS blocking ([3]; AD10, IFN-γ 10 and 100 U/mL, L-NMA 1.0 mM, 24 hours, FIG. 6B): markedly reduced
- IFN-γ mediated upregulation of Fas protein level in presence of NOS inhibitor [4]: markedly reduced
- IFN-γ-increased Fas surface expression with NOS inhibitor ([5]; AD10, IFN-γ 10 U/mL, FIG. 6D): partially blocked

Molecule: IFN-γ: human recombinant IFN-γ, gamma interferon cytokine
- IFN-γ concentration at which significant levels of iNOS mRNA were observed ([7]; 1% FCS): 1 U/mL
- IFN-γ concentration at which plateau of iNOS mRNA expression was reached [7]: 100 U/mL
- iNOS expression upon IFN-γ treatment [8]: not possible to detect any iNOS expression
- production of NO (nitrites and nitrates in culture medium) upon IFN-γ ([6]; IFN-γ 0 to 1000 U/ml, 18 hours): can be induced by IFN-γ to produce NO by iNOS
- NO generation upon IFN-γ stimulation [9]: cannot generate NO
- frequency of cells undergoing apoptosis vs untreated control group (AD10 cells [2]; AD10, IFN-γ 18 h then CH11 0.1 μg/mL 6 h): greater frequency of cells undergoing apoptosis
- Fas protein level with IFN-γ [4]: upregulation of Fas protein level
- expression of Fas surface molecule vs untreated control cells ([5]; AD10, IFN-γ 10 U/mL, 18 hours, FIG. 6D): increased expression
- expression of Fas surface molecule with IFN-γ [10]: increased expression

B1: IFN-γ: human recombinant IFN-γ, gamma interferon cytokine (protein, UniProt P01579 24-161, looked up)
Interferon gamma: QDPYVKEAENLKKYFNAGHSDVADNGTLFLGILKNWKEESDRKIMQSQIVSFYFKLFKNFKDDQSIQKSVETIKEDMNVKFFNSNKKKRDDFEKLTNYSVTDLNVQRKAIHELIQVMAELSPAAKTGKRKRSQMLFRG
- sensitization to Fas-mediated cytotoxicity compared with untreated control group (AD10 cells [1]; AD10, IFN-γ pretreatment 18 h, then CH11, FIG. 2B): 10 fold
- capacity of being sensitized by IFN-γ to Fas-mediated cytotoxicity (A2780 cells; A2780 compared with AD10, IFN-γ 18 h then CH11, FIG. 2A): lower capacity of being sensitized
